Columns and labels:
[1] = test system: S. aureus BK18 and B9377 persisters; test: P128 and antibiotic activity on persisters (CFU); assay type: cell-based, Staphylococcus aureus; details: 1×MIC, P128 1 h, antibiotics 6 h
Procedure: Persisters were generated as above were treated with P128 and antibiotics (Ref: Gutiérrez, et al. (2014) Effective Removal of Staphylococcal Biofilms by the Endolysin LysH5 PLoS One 9(9): e107307).
To 450 μL aliquots, P128. Daptomycin and Vancomycin (in saline) were added (individually) each at 1×MIC Conc., and another 450 μL aliquot was taken as control. The persister samples treated with P128 were incubated for 1 h, 37° C., and 200 rpm and those treated with antibiotics were incubated for 6 h, 37° C., and 200 rpm. After incubation samples were serially log diluted and plated.

[2] = test system: S. epidermidis, S. lugdunensis and S. haemolyticus biofilms; test: CoNS biofilm eradication, crystal violet staining; assay type: cell-based; details: 250 and 100 μg/mL for 4 h, all three CoNS
Procedure: Dis. 209:1469-78 was followed. Briefly, S. epidermidis, S. lugdunensis and S. haemolyticus strains were inoculated into TSB with 2% glucose and the cultures were grown overnight. The cultures were diluted 1:50 in TSB to achieve an OD600˜0.1. Two hundred micro liter of the diluted culture was added to 1.8 ml of TSB media aliquoted into each well of a 24 well plate (˜5×10^5 CFU). The plates were kept at 37° C. under static conditions for 18 h, the contents were aspirated, the wells were washed twice with 2.0 ml of 1×PBS, and 1 mL of media+1 mL of the drug was added to each well and incubated at 37° C. for 0, 2, 4, and 24 h. TSB supplemented with 50 μg/ml Ca^++ was used for daptomycin treatment wells. The contents were aspirated out at the stipulated time points and the wells were washed with 2 ml of 1×PBS. The wells were allowed to dry at 37° C. for 15 min and stained with 1 mL of 1% CV for 5 min. The wells were washed with 1 mL of 1×PBS, air dried and observed for intensity of blue color.
0.1% CV was used for staining biofilms. Post staining and washing steps, 1 mL 30% acetic acid is added to each well, incubated in RT for 5-10 min, contents in the well are mixed thoroughly and OD was read at 570 nm.

S. aureus biofilm = test: Bactericidal activity on biofilm (CFU reduction); assay type: cell-based, Staphylococcus aureus; details: S. aureus MW2 biofilm on catheters; P128 8 μg/mL; daptomycin 10 μg/mL; vancomycin 15 μg/mL
Procedure: In order to determine whether P128 could also act as a bactericidal agent in biofilms, the CFU reduction were monitored in S. aureus ATCC 29213 72 h preformed biofilms treated with various concentrations of P128 for 6 h. For CFU enumeration in catheter biofilm, the catheters were removed from the tubes, rinsed twice in PBS and placed in eppendorf tubes containing 1 mL PBS. To release the adhered biofilm into PBS, the catheters were scraped using inoculation loop. The samples were vortexed thoroughly and plated on LB agar plates.

S. aureus biofilms = test: MBIC and checkerboard synergy on preformed biofilm (MTT assay); assay type: cell-based, Staphylococcus aureus; details: for MIC (drug alone) on biofilm: S. aureus MW2 72 h preformed biofilm, 6 hr treatment; for Activity on biofilms: S. aureus MW2 biofilm, drug alone
Procedure: […] LB supplemented with 50 μg/mL CaCl2 was used for daptomycin treatment wells. The contents of the well was aspirated out and discarded. The biofilm adhered to the wells was quantified by MTT assay as described above. The MBIC was defined as the minimum concentration of P128 or the drug showing no colour development. […] In each experiment, in addition to the combination MBIC, the MBIC of each drug was also determined individually. The fractional MBIC concentrations were determined by MTT dye method as described above. The FICI and synergy was also calculated in a similar manner.
The ability of P128 to inhibit growth of S. aureus in a preformed biofilm was measured by determining minimum biofilm inhibition concentration (MBIC), defined as minimum concentration showing growth inhibition in a MTT based assay. […] 11:226.
The assay was optimized using the standard S. aureus strain ATCC 29213. An overnight-grown culture of the strain was diluted 1:40 in LB broth 200 μL of diluted culture was aliquoted into microtiter plate wells. Microplates were placed in a shaker-incubator set to 37° C., and 100 rpm for 24 h followed by 48 h incubation under static conditions at 37° C. The contents of one set of four wells were aspirated and discarded. Wells were washed twice with 1×PBS and the presence of biofilm in the wells at the end of this 72-hour period was determined by metabolic dye-reduction assay method using MTT (3-(4, 5-dimethylthiazol-5-diphenyltetrazolium bromide; Himedia). In this assay, live cells reduce the dye leading to color formation which can be read at 570 nm, and the intensity of color can be correlated to number of live cells. 100 μL of PBS was added to the wells along with 10 μL of MTT solution. The plate was incubated for 2 h in the dark. After this, 110 μL of solvent solution solubilizing agent was added and the plate was incubated for 15 minutes at ambient temperature with gentle agitation. The absorbance was read at 570 nm in a microplate reader. Another set of four wells was processed for harvesting the biofilm and determination of CFUs present by plating on solid media. For biofilm inhibitory studies, the wells were washed twice with 1×PBS and challenged with various concentrations of P128 or other antibiotic drugs and incubated for 24 h at 37° C. The contents of the well was aspirated out and discarded. The biofilm adhered to the wells was quantified by MTT assay as described above. The MBIC was defined as the minimum concentration of P128 or the drug showing no colour development. […] In each experiment, in addition to the combination MBIC, the MBIC of each drug was also determined individually. The fractional MBIC concentrations were determined by MTT dye method as described above. The FICI and synergy was also calculated in a similar manner.
In order to determine whether P128 could synergize with known anti-Staphylococcus drugs to inhibit S. aureus in biofilms. […] The assays were performed in a 96 well checkerboard format using various concentrations of P128 and one of the antibiotics.

SMILES | CFU/mL after treatment of persisters ([1]; B9377 Daptomycin persisters) | CFU/mL after treatment of persisters ([1]; B9377 Vancomycin persisters) | CFU/mL after treatment of persisters ([1]; BK18 Daptomycin persisters) | CFU/mL after treatment of persisters ([1]; BK18 Vancomycin persisters) | Activity on preformed biofilm, crystal violet [2] | Reduction in CFU counts (S. aureus biofilm) | MIC (drug alone) on biofilm (S. aureus biofilms) [µg/mL] | Activity on biofilms (S. aureus biofilms) | MBIC (individual) (S. aureus biofilms; Table 4, S. aureus ATCC 29213 preformed biofilm, 6 h) [µg/mL] | MBIC (individual) (S. aureus biofilms; Table 4, S. aureus ATCC 29213 preformed biofilm, 24 h) [µg/mL] | MBIC (individual) (S. aureus biofilms; Table 4, S. aureus B9241 preformed biofilm, 6 h) [µg/mL] | MBIC (individual) (S. aureus biofilms; Table 4, S. aureus B9241 preformed biofilm, 24 h) [µg/mL] | MBIC (individual) (S. aureus biofilms; Table 4, S. aureus BK1 preformed biofilm, 6 h) [µg/mL] | MBIC (individual) (S. aureus biofilms; Table 4, S. aureus BK1 preformed biofilm, 24 h) [µg/mL]
CCCCCCCCCC(=O)N[C@@H](Cc1c[nH]c2ccccc12)C(=O)N[C@H](CC(N)=O)C(=O)N[C@@H](CC(=O)O)C(=O)N[C@@H]1C(=O)NCC(=O)N[C@@H](CCCN)C(=O)N[C@@H](CC(=O)O)C(=O)N[C@H](C)C(=O)N[C@@H](CC(=O)O)C(=O)NCC(=O)N[C@H](CO)C(=O)N[C@@H]([C@H](C)CC(=O)O)C(=O)N[C@@H](CC(=O)c2ccccc2N)C(=O)O[C@@H]1C [Daptomycin, daptomycin] | 1 × 10^2 CFU/mL | 6 × 10^5 CFU/mL | 1 × 10^1 CFU/mL | 7.5 × 10^5 CFU/mL | poor activity | 1 log | 31.2 | relatively better activity | – | – | – | – | – | –
CC(=O)NC[C@H]1CN(c2ccc(N3CCOCC3)c(F)c2)C(=O)O1 [Linezolid, linezolid] | – | – | – | – | poor activity | – | >500 | poorly effective | – | – | – | – | – | –
CN[C@H](CC(C)C)C(=O)N[C@H]1C(=O)N[C@@H](CC(N)=O)C(=O)N[C@H]2C(=O)N[C@H]3C(=O)N[C@H](C(=O)N[C@H](C(=O)O)c4cc(O)cc(O)c4-c4cc3ccc4O)[C@H](O)c3ccc(c(Cl)c3)Oc3cc2cc(c3O[C@@H]2O[C@H](CO)[C@@H](O)[C@H](O)[C@H]2O[C@H]2C[C@](C)(N)[C@H](O)[C@H](C)O2)Oc2ccc(cc2Cl)[C@H]1O [Vancomycin, vancomycin] | 2.6 × 10^2 CFU/mL | 4 × 10^5 CFU/mL | 1 × 10^1 CFU/mL | 8 × 10^5 CFU/mL | poor activity | no significant effect | 250 | poorly effective | 7.8 | 218.75 | 31.25 | 125 | 31.25 | 250

Reference: patent US20190282673A1, “STAPHTAME ACTIVITY ON BIOFILMS” (priority 2016, published 2019)
